Measurements reported in publication PMC11637438, “Chickpea NCR13 disulfide cross-linking variants exhibit profound differences in antifungal activity and modes of action” (PLOS Pathogens, 2024).
Read-outs that look alike come from different tables or passages of the source. Ends that are not written are not given here. Peptide text beside a SMILES is read from it.

System: B. cinerea
Type: cell-based, Botrytis cinerea
Settings: for fold reduction in antifungal activity relative to NCR13_CS: reduced peptides
Protocol: B. cinerea strain T4 was cultured in V8 medium for 3 weeks at 25°C. Fungal spores were collected by flooding the fungal growth plates with water and scraped using a sterile spreader. The spore suspension was filtered through two layers of Miracloth, followed by centrifugation at 12,000 g for 2 minutes (min) and subsequently washed twice with sterile water. Lastly, fungal spores were resuspended in Synthetic Fungal Media (SFM). The spore suspension was adjusted to the desired spore density of about 10^5 spores/mL using a hemocytometer. Fusarium virguliforme (F. virguliforme) was grown and maintained regularly in potato dextrose agar (PDA) (Difco Laboratories) medium. Two weeks old F. virguliforme plates were used to collect spores as described above for B. cinerea followed by centrifugation and washing steps. Spores were counted using a hemocytometer and adjusted to the final concentration of 10^5 spores/mL in 2X SFM media. Sclerotinia sclerotiorum obtained from the field of pennycress in Illinois was grown on PDA medium at room temperature.
The antifungal activity of NCR13 against fungal pathogens was determined using the resazurin cell viability assay, as described previously. Briefly, 45 μL of each peptide dilution (0, 0.09, 0.1875, 0.375, 0.75, 1.5, 3, and 6 μM) was added to each well of the microtiter plate containing 45 μL (~10^5 spores/mL) of spore suspension. Three biological replicates were used for each treatment and the experiments were repeated three times. Resazurin at 0.1% (w/v) was added to each well after incubation for 48 h. Images were taken at ~24 h. The Minimum Inhibitory Concentration (MIC) for each peptide denotes the lowest concentration at which the peptide halts the growth of fungus evident through a lack of color change from blue to […]. The in vitro antifungal activity of NCR13_PFVs against S. sclerotiorum was determined using a 24-well plate assay as previously described. Mycelial plugs (1 mm in diameter) cut from the growing edge of the two day-old actively growing colony were transferred from PDA media to a series of wells containing 250 μL of SFM.

[1] = B. cinerea, resazurin assay in SFM, ~10^5 spores/mL, resazurin added after 48 h, three biological replicates

Row | Molecule | Minimal Inhibitory Concentration (MIC) [1] | Minimal Inhibitory Concentration (MIC) (48 h) [µM] | further results
1 | CC(C)[C@H](NC(=O)[C@H](CCCCN)NC(=O)[C@@H]1CCCN1C(=O)[C@H](CCCCN)NC(=O)[C@H](CCCNC(=N)N)NC(=O)[C@H](CS)NC(=O)[C@H](C)NC(=O)[C@H](Cc1ccccc1)NC(=O)[C@H](CCCCN)NC(=O)[C@@H](N)CCCCN)C(=O)N1CCC[C@H]1C(=O)N[C@@H](CCCCN)C(=O)N[C@@H](CS)C(=O)O [NCR13 active motif] (H-KKFACRKPKVPKC-OH; N-terminus and C-terminus assumed) | 3 µM | – | –
2 | CC[C@H](C)[C@H](NC(=O)[C@H](CS)NC(=O)[C@H](CCCCN)NC(=O)[C@@H]1CCCN1C(=O)[C@@H](NC(=O)[C@H](CCCCN)NC(=O)[C@@H]1CCCN1C(=O)[C@H](CCCCN)NC(=O)[C@H](CCCNC(=N)N)NC(=O)[C@H](CS)NC(=O)[C@H](C)NC(=O)[C@H](Cc1ccccc1)NC(=O)[C@H](CCCCN)NC(=O)[C@H](CCCCN)NC(=O)[C@H](CS)NC(=O)[C@H](C)NC(=O)[C@H](C)NC(=O)[C@H](C)NC(=O)[C@H](C)NC(=O)[C@H](C)NC(=O)[C@H](CS)NC(=O)[C@@H]1CCCN1C(=O)[C@H](CCCCN)NC(=O)[C@@H](N)[C@@H](C)O)C(C)C)C(=O)N[C@@H](CC(N)=O)C(=O)NCC(=O)N[C@@H](Cc1ccccc1)C(=O)N[C@@H](CS)C(=O)N[C@@H](CCCCN)C(=O)N[C@@H](CS)C(=O)N[C@H](C(=O)N[C@@H](CCCNC(=N)N)C(=O)O)C(C)C [NCR13_AlaV1] (H-TKPCAAAAACKKFACRKPKVPKCINGFCKCVR-OH; N-terminus and C-terminus assumed) | – | 6 | fold reduction in antifungal activity relative to NCR13_CS (B. cinerea): 2 fold
3 | CC[C@H](C)[C@H](NC(=O)[C@H](CS)NC(=O)[C@H](CCCCN)NC(=O)[C@@H]1CCCN1C(=O)[C@@H](NC(=O)[C@H](CCCCN)NC(=O)[C@@H]1CCCN1C(=O)[C@H](CCCCN)NC(=O)[C@H](CCCNC(=N)N)NC(=O)[C@H](CS)NC(=O)[C@H](C)NC(=O)[C@H](C)NC(=O)[C@H](C)NC(=O)[C@H](C)NC(=O)[C@H](CS)NC(=O)[C@H](CC(=O)O)NC(=O)[C@H](CCCCN)NC(=O)[C@H](CC(=O)O)NC(=O)[C@H](CO)NC(=O)[C@H](CCC(N)=O)NC(=O)[C@H](CS)NC(=O)[C@@H]1CCCN1C(=O)[C@H](CCCCN)NC(=O)[C@@H](N)[C@@H](C)O)C(C)C)C(=O)N[C@@H](CC(N)=O)C(=O)NCC(=O)N[C@@H](Cc1ccccc1)C(=O)N[C@@H](CS)C(=O)N[C@@H](CCCCN)C(=O)N[C@@H](CS)C(=O)N[C@H](C(=O)N[C@@H](CCCNC(=N)N)C(=O)O)C(C)C [NCR13_AlaV2] (H-TKPCQSDKDCAAAACRKPKVPKCINGFCKCVR-OH; N-terminus and C-terminus assumed) | – | > 12 | –
4 | CC[C@H](C)[C@H](NC(=O)[C@H](CS)NC(=O)[C@H](C)NC(=O)[C@H](C)NC(=O)[C@H](C)NC(=O)[C@H](CCCCN)NC(=O)[C@@H]1CCCN1C(=O)[C@H](CCCCN)NC(=O)[C@H](CCCNC(=N)N)NC(=O)[C@H](CS)NC(=O)[C@H](C)NC(=O)[C@H](Cc1ccccc1)NC(=O)[C@H](CCCCN)NC(=O)[C@H](CCCCN)NC(=O)[C@H](CS)NC(=O)[C@H](CC(=O)O)NC(=O)[C@H](CCCCN)NC(=O)[C@H](CC(=O)O)NC(=O)[C@H](CO)NC(=O)[C@H](CCC(N)=O)NC(=O)[C@H](CS)NC(=O)[C@@H]1CCCN1C(=O)[C@H](CCCCN)NC(=O)[C@@H](N)[C@@H](C)O)C(=O)N[C@@H](CC(N)=O)C(=O)NCC(=O)N[C@@H](Cc1ccccc1)C(=O)N[C@@H](CS)C(=O)N[C@@H](CCCCN)C(=O)N[C@@H](CS)C(=O)N[C@H](C(=O)N[C@@H](CCCNC(=N)N)C(=O)O)C(C)C [NCR13_AlaV4] (H-TKPCQSDKDCKKFACRKPKAAACINGFCKCVR-OH; N-terminus and C-terminus assumed) | – | > 12 | –
5 | CC(C)[C@H](NC(=O)[C@H](CS)NC(=O)[C@H](CCCCN)NC(=O)[C@H](CS)NC(=O)[C@H](C)NC(=O)[C@H](C)NC(=O)[C@H](C)NC(=O)[C@H](C)NC(=O)[C@H](CS)NC(=O)[C@H](CCCCN)NC(=O)[C@@H]1CCCN1C(=O)[C@@H](NC(=O)[C@H](CCCCN)NC(=O)[C@@H]1CCCN1C(=O)[C@H](CCCCN)NC(=O)[C@H](CCCNC(=N)N)NC(=O)[C@H](CS)NC(=O)[C@H](C)NC(=O)[C@H](Cc1ccccc1)NC(=O)[C@H](CCCCN)NC(=O)[C@H](CCCCN)NC(=O)[C@H](CS)NC(=O)[C@H](CC(=O)O)NC(=O)[C@H](CCCCN)NC(=O)[C@H](CC(=O)O)NC(=O)[C@H](CO)NC(=O)[C@H](CCC(N)=O)NC(=O)[C@H](CS)NC(=O)[C@@H]1CCCN1C(=O)[C@H](CCCCN)NC(=O)[C@@H](N)[C@@H](C)O)C(C)C)C(=O)N[C@@H](CCCNC(=N)N)C(=O)O [NCR13_AlaV5] (H-TKPCQSDKDCKKFACRKPKVPKCAAAACKCVR-OH; N-terminus and C-terminus assumed) | – | 12 | fold reduction in antifungal activity relative to NCR13_CS (B. cinerea): 4 fold
6 | CC[C@H](C)[C@H](NC(=O)[C@H](CS)NC(=O)[C@H](CCCCN)NC(=O)[C@@H]1CCCN1C(=O)[C@@H](NC(=O)[C@H](CCCCN)NC(=O)[C@@H]1CCCN1C(=O)[C@H](CCCCN)NC(=O)[C@H](CCCNC(=N)N)NC(=O)[C@H](CS)NC(=O)[C@H](C)NC(=O)[C@H](Cc1ccccc1)NC(=O)[C@H](CCCCN)NC(=O)[C@H](CCCCN)NC(=O)[C@H](CS)NC(=O)[C@H](CC(=O)O)NC(=O)[C@H](CCCCN)NC(=O)[C@H](CC(=O)O)NC(=O)[C@H](CO)NC(=O)[C@H](CCC(N)=O)NC(=O)[C@H](CS)NC(=O)[C@@H]1CCCN1C(=O)[C@H](CCCCN)NC(=O)[C@@H](N)[C@@H](C)O)C(C)C)C(=O)N[C@@H](CC(N)=O)C(=O)NCC(=O)N[C@@H](Cc1ccccc1)C(=O)N[C@@H](CS)C(=O)N[C@@H](CCCCN)C(=O)N[C@@H](CS)C(=O)N[C@H](C(=O)N[C@@H](CCCNC(=N)N)C(=O)O)C(C)C [NCR13_CS] (H-TKPCQSDKDCKKFACRKPKVPKCINGFCKCVR-OH; N-terminus and C-terminus assumed) | 3 µM | – | fold decrease in antifungal activity compared to NCR13_PFV1 (B. cinerea): ~33 fold; fold decrease in antifungal activity compared to NCR13_PFV2 (B. cinerea): 2 fold
7 | TKPSQSDKDSKKFASRKPKVPKSINGFSKSVR [NSR13] | Inactive | > 24 | –
